Test results as given in patent US20030130180A1, “Utilization of an aminopeptidase inhibitor” (priority 2000, published 2003).

Columns and labels:
[1] = test system: tumor cells and immune cells; experiment: Cell-biological experiments on blocking of polarization of tumor cells and immune cells; assay type: cell-based; conditions: general statement
From the text: By means of a method of simultaneously detecting a number of cell surface proteins, it has been established that aminopeptidases will control cell surface proteins which are not part of the class of proteolytic enzymes, but belong to the class of the adhesion molecules, which adhesion molecules—in a certain combination and geometric array—will be decisive for the polarization of the cells. Consequently, aminopeptidases appear to be superordinate control proteins in a protein network consisting of up to 30 different cell surface protein species which—through specific interaction with one another—will control polarization of tumor cells and other invasive cells such as immune cells and which are listed above. The inhibition of at least one aminopeptidase will lead to a reproducible modification of surface protein combinations on the cell surface which will always also involve a modification of CD13. […] The term polarization as used here shall denote a process in which a primarily spherical cell will transition into an oblong, elongated cell shape, via various intermediate states. This process which constitutes a change of shape controlled by the complex protein network is the prerequisite for cell migration, since only cells of oblong shape are capable of migrating. The polarization process therefore needs to precede all cell migration processes, including invasion. […]

[2] = test system: tumor cells; conditions: cited from earlier work
[3] = test system: tumor cells; conditions: cited from earlier work; for tumor cell invasion: in vitro, matrigel analytic system

Structure (SMILES): CC(C)C[C@H](NC(=O)[C@@H](O)[C@H](N)Cc1ccccc1)C(=O)O [bestatin]
- modification of the surface proteins of the protein network [1]: leading to a modification of the surface proteins of the protein network
- degradation of type IV collagen [2]: capable of preventing degradation of the type IV collagen
- invasion of tumor cells [2]: preventing the invasion of tumor cells
- tumor cell adhesion and migration to the extracellular matrix [2]: does not have any influence
- formation of cell extensions [3]: no effect
- tumor cell invasion [3]: do not have an effect

Structure (SMILES): CCc1cccc(CC)c1N1C(=O)Cc2ccccc2C1=O [PIQ-22]
- formation of cell extensions [3]: suppression of the formation of cell extensions
- tumor cell invasion [3]: inhibition of the invasion
